One assay concerns HepG2 cells. As to the kind of experiment: MTT anti-proliferative assay, HepG2. The assay is classed as cell-based, human. The settings on record: for IC50: Homo sapiens, HepG2, MTT, 48 h, means ± SD of three experiments; for anticancer activity in words, HepG2: HepG2 cells. As to the method: (§1) A series of novel enmein-type diterpenoid derivatives, 5a–m, were synthesized by introducing a side chain containing a carbamate moiety at the C-6 position of compound 4. The anticancer activities of 5a–m were tested against three human cancer cell lines and one human normal cell line by MTT assay.
(§2) Human non-small cell lung cancer cell lines (A549), human liver cancer cell lines (HepG2), human breast cancer cell lines (MCF-7), and human normal cell lines (L-02) were purchased from the cell bank of the Chinese Academy of Sciences. All cells were placed in RPMI-1640 medium (added 10% fetal bovine serum, […]) and cultured in an aseptic environment with 5% CO2 at 37 °C.
(§3) All derivatives were evaluated for their anti-proliferative activities against three cancer cell lines and one normal cell line by MTT assay. The cells in the logarithmic growth phase were inoculated into 96-well plates (3 × 10^3 cells/well) and incubated for 48 h in a sterile environment with 5% CO2 at 37 °C to make them attach via cell adhesion; then, the cells were co-incubated with target compounds for 48 h. After that, MTT solution (10 µL/well) was added to the cell culture medium to continue incubation for 4 h, following which the medium was replaced with DMSO (150 µL/well). The absorbance values at 490 nm were determined using an enzyme meter (Safire 2, Tecan, Männedorf, Switzerland) and further converted to half-inhibitory concentration values of these compounds.

The subject of another assay is L-02 cells. As to the kind of experiment: MTT anti-proliferative assay, normal L-02 cells. Format: cell-based. The note with it: Homo sapiens, L02, 48 h, means ± SD of three experiments. As to the method: as §1, §2, §3
Another assay deals with A549 cells. As to the kind of experiment: MTT anti-proliferative assay, A549. Format: cell-based, human. The note with it: Homo sapiens, A549; MTT, 48 h; means ± SD of three experiments. As to the method:
as §1, §2, §3

The subject of a further assay is MCF-7 cells. As to the kind of experiment: MTT anti-proliferative assay, MCF-7. Format: cell-based. The note with it: Homo sapiens, MCF7, 48 h, means ± SD of three experiments. As to the method:
as §1, §2, §3

In a further assay the test system is HeLa. On the set-up: method as in PMID 20183309, PMID 26757019, doi:10.1016/j.tetlet.2007.10.133, PMID 19431012. The settings on record: Figure 1; cited from earlier work.
The next assay concerns HL60. The arrangement: method as in PMID 20183309, PMID 26757019, doi:10.1016/j.tetlet.2007.10.133, PMID 19431012. The note with it: Figure 1; cited from earlier work.
Another assay concerns MCF-7. On the set-up: method as in PMID 20183309, PMID 26757019, doi:10.1016/j.tetlet.2007.10.133, PMID 19431012. The settings on record: Figure 1; cited from earlier work.
The subject of the next assay is A549. On the set-up: method as in PMID 20183309, PMID 26757019, doi:10.1016/j.tetlet.2007.10.133, PMID 19431012. The note with it: Figure 1; cited from earlier work.

With `C=C1C(=O)C23C(=O)OC45CCC(C)(C)C6C(OC(=O)CCC(=O)NCc7ccc(F)cc7)OCC64C2CCC1C3O5` (single isomer, unassigned; ent-6) [Compound 7e, ent-6β,14α-Dihydroxy-(1,7–1,14)-epoxy-7,15-dioxo-6,20-hemiketal-6,7-seco-16-kaurene-6β-yl 4-((4-fluorobenzyl)amino)-4-oxobutanoate], the concentration for half-maximal inhibition (IC50) in the assay with HepG2 cells was 11.6 ± 1.34 µM; with L-02 cells, more than 50 µM; in the assay with A549 cells it was 7.12 ± 1.52 µM; in the assay with MCF-7 cells, 9.85 ± 1.53 µM.

On to `C=C1C(=O)C23C(=O)OC45CCC(C)(C)C6C(OC(=O)CCC(=O)NCc7ccc(Cl)cc7)OCC64C2CCC1C3O5` (single isomer, unassigned; ent-6) [Compound 7f, ent-6β,14α-Dihydroxy-(1,7–1,14)-epoxy-7,15-dioxo-6,20-hemiketal-6,7-seco-16-kaurene-6β-yl 4-((4-chlorobenzyl)amino)-4-oxobutanoate], for which, in the assay with HepG2 cells, the “anticancer activity in words, HepG2” value was “low micro-molar-level anticancer activities”. The concentration for half-maximal inhibition (IC50) with HepG2 cells is 8.61 ± 1.14 µM; in the assay with L-02 cells it was more than 50 µM; in the assay on A549 cells it was 7.38 ± 0.96 µM; in the assay on MCF-7 cells, 8.2 ± 1.21 µM.

Turning to `C=C1C(=O)C23C(=O)OC45CCC(C)(C)C6C(OC(=O)CCC(=O)NCc7ccc(Br)cc7)OCC64C2CCC1C3O5` (single isomer, unassigned; ent-6) [Compound 7g, ent-6β,14α-Dihydroxy-(1,7–1,14)-epoxy-7,15-dioxo-6,20-hemiketal-6,7-seco-16-kaurene-6β-yl 4-((4-bromobenzyl)amino)-4-oxobutanoate], in the assay on HepG2 cells, the “anticancer activity in words, HepG2” value was “low micro-molar-level anticancer activities”. Also, the IC50 in the assay on HepG2 cells is 8.78 ± 1.46 µM; in the assay with L-02 cells, more than 50 µM; with A549 cells, 8.6 ± 2.65 µM; in the assay with MCF-7 cells it was 13 ± 1.52 µM.

Turning to `C=C1C(=O)C23CC1CCC2C12COC(O)C1C(C)(C)CCC2OC3=O` (stereo not drawn) [Isodocarpin], the results for the 50% inhibitory concentration (IC50) with HeLa and in the assay with HL60 were 4.01 µM and 0.57 µM, respectively.

`C=C1C(=O)[C@]23[C@H](O)[C@H]1CC[C@H]2[C@@]12CO[C@]3(O)[C@@H](O)[C@@H]1C(C)(C)CC[C@@H]2O` [Oridonin, reference compound]: the concentration for half-maximal inhibition (IC50) is 22.6 ± 1.2 µM in the assay with HepG2 cells, 23.6 ± 1.65 µM with L-02 cells, 21.1 ± 1.58 µM in the assay on A549 cells and 18.5 ± 1.37 µM in the assay on MCF-7 cells.

With `C=C1C(=O)[C@]23C[C@H]1C[C@H](O)C2[C@@]12CO[C@@H](OC)C1C(C)(C)CC[C@@H]2OC3=O` (stereo partly drawn) [Rabdosin A], the IC50 was 2.82 µM in the assay with MCF-7, 3.53 µM with A549 and 2.11 µM in the assay on HL60.

For the compound `CC(=O)O[C@H]1C(=O)[C@@]2(C)[C@H]([C@H](OC(=O)c3ccccc3)[C@]3(O)C[C@H](OC(=O)[C@H](O)[C@@H](NC(=O)c4ccccc4)c4ccccc4)C(C)=C1C3(C)C)[C@]1(OC(C)=O)CO[C@@H]1C[C@@H]2O` [Taxol, reference compound], the 50% inhibitory concentration (IC50) with HepG2 cells was found to be 6.6 ± 1.61 µM; with L-02 cells, 8.31 ± 1.82 µM; with A549 cells it was 4.21 ± 0.73 µM; with MCF-7 cells, 5.15 ± 0.8 µM.

Values taken from publication PMC11396751, “Design, Synthesis, and Anticancer Activity of Novel Enmein-Type Diterpenoid Derivatives Targeting the PI3K/Akt/mTOR Signaling Pathway” (Molecules, 2024).
